Literature values in patent publication US20140314729A1, “NUTRACEUTICAL FORMULATION FOR TREATMENT OF ELEVATED CHOLESTEROL AND CARDIOVASCULAR DISEASE” (Creative Medical Health Inc., priority 2013, published 2014).

Columns and labels:
HIV-positive subjects = settings: 1000 µg/day for eight weeks
volunteers = settings: 1.6 mg daily, 42-day period
[1] = system: streptozotocin-treated rats; settings: 80 μg/kg body weight daily for two weeks; P<0.001
[2] = system: patients with type 2 diabetes; settings: oral 200 mg/day for 12 weeks
mouse model = settings: 150 mg/kg body weight for 10 days

## chromium picolinate
HIV-positive subjects
  increase of mean rate of glucose disposal: 25%
HIV-positive subjects; from 4.41, range 3.19-12.78, p=0.03
  mean rate of glucose disposal after treatment: 6.51 mg/kg LBM/min
volunteers
  decrease in LDL cholesterol: 10.5%
  decrease in total cholesterol: 7%
volunteers; from 200
  LDL cholesterol after treatment: 178 mg per dl
volunteers; from 276
  total cholesterol after treatment: 256 mg per dl
[1]
  average lowering of blood glucose compared with high-fat diet alone: 63%
  lowering of total cholesterol compared with high-fat diet alone: 9.7%
  lowering of triglycerides compared with high-fat diet alone: 6.6%

## COC1=C(OC)C(=O)C(C/C=C(\C)CC/C=C(\C)CC/C=C(\C)CC/C=C(\C)CC/C=C(\C)CC/C=C(\C)CC/C=C(\C)CC/C=C(\C)CC/C=C(\C)CCC=C(C)C)=C(C)C1=O [coenzyme Q10]
[2]
  brachial artery flow-mediated dilation: increased

## CC(C)(COP(=O)(O)O)[C@@H](O)C(=O)NCCC(=O)O [phosphopantothenate]
Mouse model
  content of triglycerides, total cholesterol and cholesterol esters in serum and adipose tissue: decreased
